According to PubChem BioAssay AID2060331 (Molecular Pharmacology Branch, DTP, NCI, 2025):

System: Hs578T multi-cell spheroids, viability
Assay: Anticancer human tumor Hs578T cell line growth inhibition [IpAb];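 further: drug exposure lasted 7 days before readout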
Settings: for IC50: curve of first compound; for viability, T/C: stronger effect = lower value; active means viability on the fitted dose curve at most 10% of control; inactive means the rest
Excerpt: Combinatorial screen of targeted agents with ipatasertib and abemaciclib in multi-cell type tumor spheroids
A high-throughput screen of multi-cell type tumor spheroids was designed to identify active combinations of targeted small molecules and ipatasertib or abemaciclib. Complex spheroids include a stromal component modeled by human endothelial cells (HUVEC) and fibroblasts modeled by human mesenchymal stem cells (MSCs). The concentration ranges selected for each drug and investigational agent were based upon clinically achievable concentrations if the clinical Cmax of the agent was known.
Compounds. The drugs and investigational agents: ipatasertib (NSC767898), abemaciclib(NSC768073), selumetinib (NSC741078), trametinib (758246), adavosertib (NSC754352), everolimus (NSC733504), sapanisertib (NSC764658), vemurafenib (NSC761431), venetoclax (NSC766270), copanlisib (NSC809693), apelisib (NSC765974), palbociblib (NSC758247), vemurafenib (NSC761431), dabrafenib (NSC764134), ravoxertinib (NSC781343), BMS-387032 (NSC767048), sotorasib (NSC818433), talazoparib (NSC767125) and afursertib (NSC778305), were obtained from the National Cancer Institute (NCI) Developmental Therapeutics Program Chemical Repository. The FDA-approved anticancer drug set is available from the NCI Developmental Therapeutics Program. […] The stock solutions were prepared in dimethyl sulfoxide (DMSO, Sigma-Aldrich, St. Louis, MO, cat. D2650) at 800-fold the tested concentration and stored at -70 degrees C prior to their use. All drugs and investigational agents were tested over a range starting from a high concentration at or near the clinical Cmax and decreasing in half-log increments. If the clinical Cmax for an agent had not been determined, the highest concentration tested was 10 microM.
NCI60 Cell Culture. NCI60 cell lines were obtained from the NCI Developmental Therapeutics Program Tumor Repository. For each lot of cells, the Repository performed Applied Biosystems AmpFLSTR Identifiler testing with PCR amplification to confirm consistency with the published Identifier STR profile for each cell line. Cells were kept in continuous culture for no more than 20 passages. The optimal seeding densities for each of the cell lines at each time point assessed were determined prior to performing the concentration response studies. Briefly, the NCI60 human tumor lines were grown as monolayers in RPMI 1640 medium supplemented with 10% FBS and 2 mmol/L L-glutamine.
An additional 9 lines were from the NCI60 cell line panel including MDA-MB-231 breast carcinoma, MDA-MB-468 breast carcinoma, MCF7 breast carcinoma, Hs578T breast carcinoma, MALME-3M melanoma, SK-MEL-2 melanoma, SK-OV-3 ovarian carcinoma, DU-145 prostate carcinoma, PC-3 prostate carcinoma, all cell lines along with major genetic alterations are listed on Table 2. Pooled donor human umbilical vein endothelial cells (HUVEC, Lonza, cat. CC-2519) and human mesenchymal stem cells (hMSC, Lonza, cat. PT-2501) were purchased from Lonza (Walkersville, MD).
PDMR cell lines were grown in complete medium (DC medium): Dulbecco's modified Eagle's medium (DMEM)/F12 supplemented with 5% fetal bovine serum (FBS), 2 mM L-glutamine, 100 U/mL penicillin and 100 µg/ml streptomycin, 0.4 µg/ml hydrocortisone, 10 ng/ml epidermal growth factor (EGF) recombinant human protein, 24 µg/mL adenine, and 0.1 mg/mL primocin. During culture from frozen stock vials, PDMR cells were cultured in the same medium containing 10 µM Y-27632 (see Table 3). The PDCs were cultured in complete DMEM/F12 media without 10 microM Y-27632 dihydrochloride for at least two passages prior to the screen. The pooled donor HUVEC and hMSC were cultured in endothelial cell growth medium 2 (PromoCell, Heidelberg, Germany, cat. C-22011) and mesenchymal stem cell growth medium 2 (PromoCell, cat. C-28009), respectively. For all experiments, HUVEC and hMSC were used at passages </=5.
[…]

[1] = second compound 0.1 µM, first compound 0.0316 µM
[2] = second compound 0.1 µM, first compound 0.1 µM
[3] = second compound 0.1 µM, first compound 0.316 µM
[4] = second compound 0.1 µM, first compound 1 µM
[5] = second compound 0.1 µM, first compound 3.16 µM
[6] = second compound 0.1 µM, first compound 10 µM
[7] = second compound 0.316 µM, first compound 0.0316 µM
[8] = second compound 0.316 µM, first compound 0.1 µM
[9] = second compound 0.316 µM, first compound 0.316 µM
[10] = second compound 0.316 µM, first compound 1 µM
[11] = second compound 0.316 µM, first compound 3.16 µM
[12] = second compound 0.316 µM, first compound 10 µM
[13] = second compound 1 µM, first compound 0.0316 µM
[14] = second compound 1 µM, first compound 0.1 µM
[15] = second compound 1 µM, first compound 0.316 µM
[16] = second compound 1 µM, first compound 1 µM
[17] = second compound 1 µM, first compound 3.16 µM
[18] = second compound 1 µM, first compound 10 µM
[19] = second compound 3.16 µM, first compound 0.0316 µM
[20] = second compound 3.16 µM, first compound 0.1 µM
[21] = second compound 3.16 µM, first compound 0.316 µM
[22] = second compound 3.16 µM, first compound 1 µM
[23] = second compound 3.16 µM, first compound 3.16 µM
[24] = second compound 3.16 µM, first compound 10 µM
[25] = second compound 10 µM, first compound 0.0316 µM
[26] = second compound 10 µM, first compound 0.1 µM
[27] = second compound 10 µM, first compound 0.316 µM
[28] = second compound 10 µM, first compound 1 µM
[29] = second compound 10 µM, first compound 3.16 µM
[30] = second compound 10 µM, first compound 10 µM

CC1(C)CCC(CN2CCN(c3ccc(C(=O)NS(=O)(=O)c4ccc(NCC5CCOCC5)c([N+](=O)[O-])c4)c(Oc4cnc5[nH]ccc5c4)c3)CC2)=C(c2ccc(Cl)cc2)C1 + CC(C)NCC(C(=O)N1CCN(c2ncnc3c2C(C)CC3O)CC1)c1ccc(Cl)cc1
active: viability, T/C [30] 5.27%
inactive: viability, T/C [1] 97.1% | viability, T/C [2] 96.7% | viability, T/C [3] 101% | viability, T/C [4] 95.3% | viability, T/C [5] 83% | viability, T/C [6] 15.7% | viability, T/C [7] 79.9% | viability, T/C [8] 90.2% | viability, T/C [9] 89.2% | viability, T/C [10] 81.9% | viability, T/C [11] 77.1% | viability, T/C [12] 13.5% | viability, T/C [13] 66.9% | viability, T/C [14] 66.5% | viability, T/C [15] 66.4% | viability, T/C [16] 63% | viability, T/C [17] 58.2% | viability, T/C [18] 11.1% | viability, T/C [19] 53.3% | viability, T/C [20] 54.3% | viability, T/C [21] 51.3% | viability, T/C [22] 53.4% | viability, T/C [23] 45.9% | viability, T/C [24] 10.2% | viability, T/C [25] 46.7% | viability, T/C [26] 46.9% | viability, T/C [27] 46.8% | viability, T/C [28] 42.3% | viability, T/C [29] 40.9%
3840 nM: IC50 (second compound 1 µM)
< 31.6 nM: IC50 (second compound 10 µM)
5570 nM: IC50 (second compound 0.1 µM)
1560 nM: IC50 (second compound 3.16 µM)
5150 nM: IC50 (second compound 0.316 µM)

COc1c(OCCCN2CCOCC2)ccc2c3n(c(=NC(=O)c4cnc(N)nc4)nc12)CCN3 + CC(C)NCC(C(=O)N1CCN(c2ncnc3c2C(C)CC3O)CC1)c1ccc(Cl)cc1
inactive: viability, T/C (second compound 0.1 µM, first compound 0.00316 µM) 90.4% | viability, T/C (second compound 0.1 µM, first compound 0.01 µM) 76.8% | viability, T/C [1] 47.4% | viability, T/C [2] 31% | viability, T/C [3] 15% | viability, T/C (second compound 0.316 µM, first compound 0.00316 µM) 81.7% | viability, T/C (second compound 0.316 µM, first compound 0.01 µM) 56.4% | viability, T/C [7] 43.5% | viability, T/C [8] 27% | viability, T/C [9] 14.7% | viability, T/C (second compound 1 µM, first compound 0.00316 µM) 57.7% | viability, T/C (second compound 1 µM, first compound 0.01 µM) 50% | viability, T/C [13] 36.6% | viability, T/C [14] 24.9% | viability, T/C [15] 14.8% | viability, T/C (second compound 3.16 µM, first compound 0.00316 µM) 51.3% | viability, T/C (second compound 3.16 µM, first compound 0.01 µM) 44.5% | viability, T/C [19] 39.3% | viability, T/C [20] 25.2% | viability, T/C [21] 15.1% | viability, T/C (second compound 10 µM, first compound 0.00316 µM) 45.5% | viability, T/C (second compound 10 µM, first compound 0.01 µM) 43.9% | viability, T/C [25] 33.6% | viability, T/C [26] 20.3% | viability, T/C [27] 13.2%
< 3.16 nM: IC50 (second compound 10 µM)
active: viability, T/C [4] 5.13% | viability, T/C [10] 5.04% | viability, T/C [16] 5.35% | viability, T/C [22] 5% | viability, T/C [28] 3.28%
3.84 nM: IC50 (second compound 3.16 µM)
33.2 nM: IC50 (second compound 0.1 µM)
8.74 nM: IC50 (second compound 1 µM)
18.8 nM: IC50 (second compound 0.316 µM)

Cc1nc(NC(=O)N2CCCC2C(N)=O)sc1-c1ccnc(C(C)(C)C(F)(F)F)c1 (stereo not given) + CC(C)NCC(C(=O)N1CCN(c2ncnc3c2C(C)CC3O)CC1)c1ccc(Cl)cc1
< 31.6 nM: IC50 (second compound 10 µM)
inactive: viability, T/C [1] 96.8% | viability, T/C [2] 87.8% | viability, T/C [3] 70.8% | viability, T/C [4] 57.4% | viability, T/C [5] 42.6% | viability, T/C [6] 11.7% | viability, T/C [7] 80.1% | viability, T/C [8] 71.3% | viability, T/C [9] 57.1% | viability, T/C [10] 48.7% | viability, T/C [11] 41% | viability, T/C [12] 13.9% | viability, T/C [13] 61.8% | viability, T/C [14] 61.4% | viability, T/C [15] 53.9% | viability, T/C [16] 42.3% | viability, T/C [17] 30.6% | viability, T/C [19] 53.6% | viability, T/C [20] 51% | viability, T/C [21] 44.1% | viability, T/C [22] 35% | viability, T/C [23] 32.5% | viability, T/C [24] 9.58% | viability, T/C [25] 45.3% | viability, T/C [26] 42.1% | viability, T/C [27] 39.2% | viability, T/C [28] 28.8% | viability, T/C [29] 21.8%
977 nM: IC50 (second compound 0.316 µM)
101 nM: IC50 (second compound 3.16 µM)
1600 nM: IC50 (second compound 0.1 µM)
491 nM: IC50 (second compound 1 µM)
active: viability, T/C [18] 8.93% | viability, T/C [30] 1.81%
